According to patent US20100227907A1, “Method of Treating Pain by Using Opioids and CAMKIV Inhibitors” (priority 2005, published 2010):

Key:
[1] = biological target: T1, CaMKIV transiently expressed in HEK293 cells (Homo sapiens, UniProt Q16566); assay: CREB luciferase reporter assay of CaMKIV activity in ionomycin-treated HEK293 cells transiently expressing CaMKIV; assay type: cell-based; conditions: 5 μM ionomycin, n=4 wells; for CREB activity, % of the control level: HEK293 expressing CaMKIV; for IC50: HEK293 transiently expressing CaMKIV, read-out: IC50 for inhibition of CaMKIV (CREB activity)
T1 construct: expressed in transfected cells; host or cells: HEK293
T1 sequence (Q16566 1-473): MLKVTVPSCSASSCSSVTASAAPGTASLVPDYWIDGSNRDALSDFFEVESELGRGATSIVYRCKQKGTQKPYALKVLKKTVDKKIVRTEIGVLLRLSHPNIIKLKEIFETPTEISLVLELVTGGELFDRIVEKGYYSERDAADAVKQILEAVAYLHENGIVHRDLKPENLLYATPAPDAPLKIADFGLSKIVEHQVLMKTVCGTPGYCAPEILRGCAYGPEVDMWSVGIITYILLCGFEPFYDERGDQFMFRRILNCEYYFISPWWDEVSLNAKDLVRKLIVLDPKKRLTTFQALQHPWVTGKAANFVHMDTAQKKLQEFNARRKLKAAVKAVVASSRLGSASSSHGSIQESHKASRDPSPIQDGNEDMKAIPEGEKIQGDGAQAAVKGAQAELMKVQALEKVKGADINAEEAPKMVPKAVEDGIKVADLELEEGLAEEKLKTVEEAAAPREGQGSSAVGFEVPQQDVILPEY
Method: (§1) HEK293 cells were seeded into 96-well plates. The next day, cells were cotransfected with the CaMKIV construct, pGL3-CRE-firefly luciferase and pGL3-CMV-Renilla luciferase constructs using Lipofectamine 2000 reagent (Invitrogen, CA) according to the manufacturer's recommendation. The following day, cells were treated with fresh medium containing DMSO as vehicle control or 5 μM ionomycin (Sigma, Mo.) in the presence or absence of KN62 or KN93 (Sigma, MO) at serial concentrations. Cells were harvested 16 h later. Luciferase activity was assayed with cell lysis by using the dual-luciferase reporter assay system (Promega, WI) according to the manufacturer's protocol.
(§2) The dose-dependent inhibitory effect of KN62 and KN93 on CaMKIV transiently expressed in HEK293 cells was determined. CaMKIV can activate CREB and stimulate CREB-mediated transcription through the direct phosphorylation of CREB on Ser-133. To measure the CaMKIV activity by CREB activity assay, the CaMKIV expression plasmids and a CREB luciferase reporter system were cotransfected into HEK293 cells in this study. The calcium ionophore ionomycin treatment can lead to an increase in intracellular Ca^2+ and Ca^2+/CaM levels, which influence CaMKIV activity in cells. Ionomycin (5 μM) can dramatically increase CREB activity in HEK293 cells expressing CaMKIV. The CREB activity is 5.5±0.2 times that of unstimulated cells (p<0.0001, compared to the unstimulated cells, n=4 wells, FIG. 8A).

[2] = tested on: CREB activity in HEK293 cells expressing CaMKIV; assay: Ionomycin stimulation of CREB activity (luciferase reporter) in HEK293 cells expressing CaMKIV; assay type: cell-based; conditions: 5 μM ionomycin, n=4 wells, p<0.0001
Method: as §1
as §2, with “The CREB activity is 5.5±0.2 times that of unstimulated cells (p<0.0001, compared to the unstimulated cells, n=4 wells, FIG. 8A).” left out

[3] = tested on: mouse CaMKIV; assay: siRNA knock-down of CaMKIV expression in cultured cortical neurons (western blot); assay type: cell-based; conditions: 30 nM siRNA, 48 h after transfection, n=3 experiments
Method: Cortical neurons were prepared from postnatal day 0 (P0) mice. All procedures were reviewed and approved by the Institutional Animal Care and Use Committee at University of Toronto, in accordance with the guidelines of the Canadian Council on Animal Care. The Cerebral cortexes were dissected, minced, and trypsinized for 15 min using 0.125% trypsin (Invitrogen, CA). Cells were seeded at the density of 4˜5×10^5 cells/cm^2 onto 60 mm dishes or 96-well plates precoated with 50 μg/ml poly-D-lysine (Sigma, Mo.) in water, and grown in Neurobasal-A medium (Invitrogen, CA) supplemented with B27 and GlutaMax (Invitrogen, CA). The cultures were incubated at 37° C. in 95% air, 5% carbon dioxide with 95% humidity.
sequence 1: sense 5′-[…]tt-3′, antisense 5′-[…]tt-3′ and sequence 2: sense 5′-[…]tt-3′, antisense 5′-[…]tt-3′, respectively (Ambion, Tex.). The annealed siRNA was reconstituted at the concentration of 100 μM for transfection. […] Cells were harvested and analyzed 48 h after transfection.
The cultured cortical neurons were harvested and homogenized in lysis buffer containing proteinase inhibitor cocktail (Sigma, Mo.). Protein was quantified by Bradford assay, and electrophoresis of equal amounts of total protein was performed on SDS-polyacrylamide gels. […] The density of immunoblots was measured using NIH ImageJ software.

[4] = tested on: pCREB expression in the spinal cord; assay: pCREB expression in spinal cord after chronic morphine (western blot); assay type: in vivo, mouse; conditions: chronic morphine 10 mg/kg s.c. daily for seven days
Method: Open field locomotor activity was recorded for 1 hr after injection followed by determination of hot plate and tail flick response latencies.
Spinal cords were dounce-homogenized (18 strokes) in 10 volumes of 10 mM Tris-Cl (pH 7.4), 320 mM Sucrose, and 1% SDS. The tissue homogenates were centrifuged at 21,000×g at 4° C. for 5 min. Equal amounts of protein from tissue samples were separated by 4-12% gradient SDS-PAGE (Invitrogen), followed by Western blotting with anti-MOR-1 (1:1000), anti-pCREB (1:1000) (Santa Cruz Biotechnology) or anti-phosphoserine antibody (for immunoprecipitated samples, 1:1000) (Sigma) followed by revelation with ECL (Amersham). Membranes (BioTrace PVDF, Pall Co.) were routinely stripped and re-probed with a monoclonal antibody for actin (1:5000, Sigma) blotting to ensure equal protein loading.

[5] = tested on: pCREB in lamina I-II of the dorsal horn; assay: pCREB immunostaining in spinal cord after chronic morphine; assay type: in vivo, mouse; conditions: chronic morphine vs saline; both CaMKIV KO and wild-type mice; p<0.001
Method: Spinal cord slices at the lumbar region were prepared using standard histological methods. Slices were incubated with rabbit anti-pCREB IgG (1:250) (Calbiochem) or rabbit anti-MOR IgG (1:500) (ImmunoStar Incorporated) at 4° C. overnight. Followed by donkey anti-rabbit IgG conjugated with Alexa 488 (1:500) (Molecular Probes) for one hour at room temperature. Measurements were made from at least three randomly selected non-contiguous sections in each mouse (3-4 mice per treatment group), observed from coded slides and averaged so that each animal has a mean value for regional immunoreactivity. The total number and density of positive cells were measured in dorsal horn layers I-II and ventral horn layers VI-IX. All data were expressed as a ratio between cell number or density and unit area. Images were obtained with an Olympus microscope. Data were analyzed with ImagePro software (Media-Cybrenetics,).

[6] = tested on: substantia gelatiosa (SG) neurons in lamina II of the dorsal horn; assay: Whole-cell patch clamp recording of sIPSCs in spinal cord slices; assay type: cell-based, mouse
Method: Postnatal mice (12-19 days old) were anesthetized with 1-2% halothane and the thoracic and lumbar spinal cord were dissected out and put into pre-equilibrated artificial cerebrospinal solution fluid (ACSF) at 1-4° C. The spinal cord was placed into the shallow groove of an agar block, and several drops of 20% gelatin were placed on the low-thoracic and high-lumbar segment to half-embed the spinal cord. The agar block, together with the half-embedded spinal cord, was glued on the stage of a vibratome with cyanoacrylate adhesive, and was immersed in the ice-cold ACSF. Then, transverse slices of the lumber spinal cord (350 μm) were prepared. Slices were transferred to a room temperature submerged recovery chamber with oxygenated (95% O2 and 5% CO2) solution containing (in mM): NaCl, 124; NaHCO3, 25; KCl, 4.4; KH2PO4, 1; CaCl2, 2; MgSO4, 2; glucose, 10. After one hr recovery, slices were placed in a recording chamber on the stage of an Axioskop 2FS microscope (Zeiss) equipped with infrared DIC optics for patch clamp recordings. Substantia gelatiosa (SG) could be identified as a translucent band capping the dorsal part of the gray matter under the microscope. Spontaneous inhibitory postsynaptic currents (sIPSCs) were recorded with an Axon 200B amplifier (Axon Instruments, CA). Recording electrodes (3-5 MΩ) contained a pipette solution composed of (in mM): Cs-gluconate, 120; NaCl, 5; MgCl2 1; EGTA, 0.5; Mg-ATP, 2; Na3GTP, 0.1; HEPES, 10; pH 7.2; 280-300 mOsmol. Access resistance was 15-30 MΩ and was monitored throughout the experiment. Data were discarded if access resistance changed more than 15% during an experiment. The membrane potential was held at […] throughout the experiment. A holding potential of +10 mV was used to record spontaneous inhibitory postsynaptic currents (sIPSCs).

Compound | CREB activity, % of the control level ([1]; 0.01 μM inhibitor) [%] | CREB activity, % of the control level ([1]; 0.1 μM inhibitor) [%] | CREB activity, % of the control level ([1]; 1.0 μM inhibitor) [%] | CREB activity, % of the control level ([1]; 10 μM inhibitor) [%] | CREB activity, % of the control level ([1]; 50 μM inhibitor) [%] | CREB activity, % of the control level ([1]; 100 μM inhibitor) [%] | IC50 [1] [nM] | also measured
COc1ccc(S(=O)(=O)N(CCO)c2ccccc2CN(C)CC=Cc2ccc(Cl)cc2)cc1 [KN93, N-[2-[[[3-(4-Chlorophenyl)-2-propenyl]methylamino]methyl]phenyl]-N-(2-hydroxyethyl)-4-methoxybenzenesulphonamide] | 93.1±0.9 | 77.7±2.5 | 40.8±2.7 | 5.3±1.5 | 1.3±0.7 | 1.1±0.9 | 580 | –
C[C@H](CCC(=O)O)C[C@H](C)C[C@H](C)C(=O)/C=C(\O)[C@H](C)C[C@H](C)C/C=C/[C@@H](C)[C@@H](O)[C@@H](C)[C@@H](O)C[C@@H]1CC[C@@](C)([C@H]2CC[C@@](C)([C@@H](C)O)O2)O1 [Ionomycin, ionomycin] | – | – | – | – | – | – | – | CREB activity, times that of unstimulated cells [2]: 5.5±0.2 times
sequence 1: siRNA for mouse CaMKIV: sense 5′-GCAUGAUAUGCACUAAUAGtt-3′, antisense 5′-CUAUUAGUGCAUAUCAUGCtt-3′ (sense GCAUGAUAUGCACUAAUAGTT; antisense CUAUUAGUGCAUAUCAUGCTT; chemistry not given here) | – | – | – | – | – | – | – | expression level of CaMKIV, % of the control [3]: 50.6±5.9%
CN([C@@H](Cc1ccc(OS(=O)(=O)c2cccc3cnccc23)cc1)C(=O)N1CCN(c2ccccc2)CC1)S(=O)(=O)c1cccc2cnccc12 [KN62, 4-[(25)-2-[(5-isoquinolinylsulfonyl)methylamino]-3-oxo-3-(4-phrenyl-1-piperazinyl)propyl]phenyl isoquinolinesulfonic acid ester] | 98.4±0.8 | 85.3±1.2 | 55.5±2.5 | 11.5±2.6 | 1.3±2.9 | 1.2±1.4 | 1060 | –
sequence 2: siRNA for mouse CaMKIV: sense 5′-CGGCUGACUACAUUUCAAGtt-3′, antisense 5′-CUUGAAAUGUAGUCAGCCGtt-3′ (sense CGGCUGACUACAUUUCAAGTT; antisense CUUGAAAUGUAGUCAGCCGTT; chemistry not given here) | – | – | – | – | – | – | – | knock down of the expression of CaMKIV (in words) [3]: could not knock down
CN1CC[C@]23c4c5ccc(O)c4O[C@H]2[C@@H](O)C=C[C@H]3[C@H]1C5 [morphine] | – | – | – | – | – | – | – | pCREB expression in spinal cord (western blot) ([4]; CaMKIV KO mice): absent; pCREB expression in spinal cord (western blot) ([4]; WT mice, p<0.001): significantly increased; pCREB in layer I and II of the dorsal horn (immunostaining) [5]: significantly increased; decrease of the frequency of sIPSCs ([6]; acutely applied morphine, CaMKIV KO mice, n=6): 66.2±4.0%; decrease of the frequency of sIPSCs ([6]; acutely applied morphine, WT mice, n=7): 68.9±10.4%; decrease of the frequency of sIPSCs ([6]; slices pre-incubated in morphine at least 1 hour, CaMKIV KO mice, n=9): 55.7±6.9%; decrease of sIPSCs (in words) ([6]; slices pre-incubated in morphine at least 1 hour, WT mice, n=8, p>0.05): did not decrease
